# In patent US20250333424A1, “ANTIVIRAL COMPOUNDS” (Gilead Sciences, Inc., priority 2024, published 2025):
# Tested on: monocytic THP1 cells infected with HIV VSV-G pseudotyped GFP-NEF reporter virus
# Assay: cells
# Assay type: cell-based
# Settings: Human immunodeficiency virus 1, THP-1, 24 h
row,Structure (SMILES),EC50 [nM]
1,"Cc1cc(/C=C/C#N)cc(C)c1Oc1nc(NC23CC(C#N)(C2)C3)nc2noc(C)c12 [Compound 111, (E)-3-((4-(4-(2-cyanovinyl)-2,6-dimethylphenoxy)-3-methylisoxazolo[3,4-d]pyrimidin-6-yl)amino)bicyclo[1.1.1]pentane-1-carbonitrile]",30.6
2,Cc1cc(/C=C/C#N)cc(C)c1Oc1nc(NC23CC(C#N)(C2)C3)nc2c(C)nn(C)c12 [Compound 121],53.2
3,"COCCn1cc2c(Oc3c(C)cc(/C=C/C#N)cc3C)nc(NC34CC(C#N)(C3)C4)nc2n1 [Compound 123, 3-[[4-[4-[(E)-2-cyanovinyl]-2,6-dimethyl-phenoxy]-2-(2-methoxyethyl)pyrazolo[3,4-d]pyrimidin-6-yl]amino]bicyclo[1.1.1]pentane-1-carbonitrile]",59.8
4,"Cc1cc(/C=C/C#N)cc(C)c1Oc1nc(NC23CC(C#N)(C2)C3)nc2c1c(N)nn2C [Compound 125, 3-[[3-amino-4-[4-[(E)-2-cyanovinyl]-2,6-dimethyl-phenoxy]-1-methyl-pyrazolo[3,4-d]pyrimidin-6-yl]amino]bicyclo[1.1.1]pentane-1-carbonitrile]",111
5,"Cc1cc(/C=C/C#N)cc(C)c1Oc1nc(NC23CC(C#N)(C2)C3)nc2[nH]nc(C(C)C)c12 [Compound 126, 3-[[4-[4-[(E)-2-cyanovinyl]-2,6-dimethyl-phenoxy]-3-isopropyl-1H-pyrazolo[3,4-d]pyrimidin-6-yl]amino]bicyclo[1.1.1]pentane-1-carbonitrile]",119
6,"Cc1cc(/C=C/C#N)cc(C)c1Oc1nc(NC23CC(C#N)(C2)C3)nc2nn(C3CCOCC3)cc12 [Compound 127, 3-[[4-[4-[(E)-2-cyanovinyl]-2,6-dimethyl-phenoxy]-2-tetrahydropyran-4-yl-pyrazolo[3,4-d]pyrimidin-6-yl]amino]bicyclo[11.1.1]pentane-1-carbonitrile]",149
7,"Cc1cc(/C=C/C#N)cc(C)c1Oc1nc(NC23CC(C#N)(C2)C3)nc2c1CNC2 [Compound 135, (E)-3-((4-(4-(2-cyanovinyl)-2,6-dimethylphenoxy)-6,7-dihydro-5H-pyrrolo[3,4-d]pyrimidin-2-yl)amino)bicyclo[1.1.1]pentane-1-carbonitrile]",275
8,"Cc1cc(/C=C/C#N)cc(C)c1Oc1nc(NC23CC(C#N)(C2)C3)nc2c1C(C)NC2=O (stereo not shown) [Compound 136, (E)-3-((4-(4-(2-cyanovinyl)-2,6-dimethylphenoxy)-5-methyl-7-oxo-6,7-dihydro-5H-pyrrolo[3,4-d]pyrimidin-2-yl)amino)bicyclo[1.1.1]pentane-1-carbonitrile]",15
9,"Cc1cc(/C=C/C#N)cc(C)c1Oc1nc(NC23CC(C#N)(C2)C3)nc2c1[C@@H](C)NC2=O [Compound 137, 3-[[(5R)-4-[4-[(E)-2-cyanovinyl]-2,6-dimethyl-phenoxy]-5-methyl-7-oxo-5,6-dihydropyrrolo[3,4-d]pyrimidin-2-yl]amino]bicyclo[1.1.1]pentane-1-carbonitrile]",6.9
10,"Cc1cc(/C=C/C#N)cc(C)c1Oc1nc(NC23CC(C#N)(C2)C3)nc2c1[C@H](C)NC2=O [Compound 138, 3-[[(5S)-4-[4-[(E)-2-cyanovinyl]-2,6-dimethyl-phenoxy]-5-methyl-7-oxo-5,6-dihydropyrrolo[3,4-d]pyrimidin-2-yl]amino]bicyclo[1.1.1]pentane-1-carbonitrile]",18.3
11,"C=C1NC(=O)c2nc(NC34CC(C#N)(C3)C4)nc(Oc3c(C)cc(/C=C/C#N)cc3C)c21 [Compound 139, (E)-3-((4-(4-(2-cyanovinyl)-2,6-dimethylphenoxy)-5-methylene-7-oxo-6,7-dihydro-5H-pyrrolo[3,4-d]pyrimidin-2-yl)amino)bicyclo[1.1.1]pentane-1-carbonitrile]",8.27
12,"Cc1cc(/C=C/C#N)cc(C)c1Oc1nc(NC23CC(C#N)(C2)C3)nc2c1C(C)N(C)C2=O (stereo not shown) [Compound 140, (E)-3-((4-(4-(2-cyanovinyl)-2,6-dimethylphenoxy)-5,6-dimethyl-7-oxo-6,7-dihydro-5H-pyrrolo[3,4-d]pyrimidin-2-yl)amino)bicyclo[1.1.1]pentane-1-carbonitrile]",14.3
13,"Cc1cc(/C=C/C#N)cc(C)c1Oc1nc(NC23CC(C#N)(C2)C3)nc2c1C(C)(O)N(C)C2=O (stereo not shown) [Compound 141, (E)-3-((4-(4-(2-cyanovinyl)-2,6-dimethylphenoxy)-5-hydroxy-5,6-dimethyl-7-oxo-6,7-dihydro-5H-pyrrolo[3,4-d]pyrimidin-2-yl)amino)bicyclo[1.1.1]pentane-1-carbonitrile]",73
14,"CCn1cc2c(Oc3c(C)cc(/C=C/C#N)cc3C)nc(NC34CC(C#N)(C3)C4)nc2n1 [Compound 143, 3-[[4-[4-[(E)-2-cyanovinyl]-2,6-dimethyl-phenoxy]-2-ethyl-pyrazolo[3,4-d]pyrimidin-6-yl]amino]bicyclo[1.1.1]pentane-1-carbonitrile]",58.5
15,"Cc1cc(/C=C/C#N)cc(C)c1Oc1nc(NC23CC(C#N)(C2)C3)nc2nn(C3CC3)cc12 [Compound 144, (E)-3-((4-(4-(2-cyanovinyl)-2,6-dimethylphenoxy)-2-cyclopropyl-2H-pyrazolo[3,4-d]pyrimidin-6-yl)amino)bicyclo[1.1.1]pentane-1-carbonitrile]",81
16,"Cc1cc(/C=C/C#N)cc(C)c1Oc1nc(NC23CC(C#N)(C2)C3)nc2nn(CC3CC3)cc12 [Compound 145, (E)-3-((4-(4-(2-cyanovinyl)-2,6-dimethylphenoxy)-2-(cyclopropylmethyl)-2H-pyrazolo[3,4-d]pyrimidin-6-yl)amino)bicyclo[1.1.1]pentane-1-carbonitrile]",89.1
17,"COc1ccc(CN2C(=O)C(C)(C)c3c(Oc4c(C)cc(/C=C/C#N)cc4C)nc(NC45CC(C#N)(C4)C5)nc32)cc1 [Compound 146, (E)-3-((4-(4-(2-cyanovinyl)-2,6-dimethylphenoxy)-7-(4-methoxybenzyl)-5,5-dimethyl-6-oxo-6,7-dihydro-5H-pyrrolo[2,3-d]pyrimidin-2-yl)amino)bicyclo[1.1.1]pentane-1-carbonitrile]",35.4
18,"Cc1cc(/C=C/C#N)cc(C)c1Oc1nc(NC23CC(C#N)(C2)C3)nc2c1CNC2=O [Compound 153, (E)-3-((4-(4-(2-cyanovinyl)-2,6-dimethylphenoxy)-7-oxo-6,7-dihydro-5H-pyrrolo[3,4-d]pyrimidin-2-yl)amino)bicyclo[1.1.1]pentane-1-carbonitrile]",27.5
19,"Cc1cc(/C=C/C#N)cc(C)c1Oc1nc(NC23CC(C#N)(C2)C3)nc2nc(C3CCOCC3)n(C(F)F)c12 [Compound 176, (E)-3-((6-(4-(2-cyanovinyl)-2,6-dimethylphenoxy)-7-(difluoromethyl)-8-(tetrahydro-2H-pyran-4-yl)-7H-purin-2-yl)amino)bicyclo[1.1.1]pentane-1-carbonitrile]",45
20,"Cc1cc(/C=C/C#N)cc(C)c1Oc1nc(NC23CC(C#N)(C2)C3)nc2nc(-c3ccn(C)n3)n(C(F)F)c12 [Compound 177, (E)-3-((6-(4-(2-cyanovinyl)-2,6-dimethylphenoxy)-7-(difluoromethyl)-8-(1-methyl-1H-pyrazol-3-yl)-7H-purin-2-yl)amino)bicyclo[1.1.1]pentane-1-carbonitrile]",45.3
21,"Cc1cc(/C=C/C#N)cc(C)c1Oc1nc(NC23CC(C#N)(C2)C3)nc2nc(C(F)F)n(C(F)F)c12 [Compound 178, (E)-3-((6-(4-(2-cyanovinyl)-2,6-dimethylphenoxy)-7,8-bis(difluoromethyl)-7H-purin-2-yl)amino)bicyclo[1.1.1]pentane-1-carbonitrile]",25.7
22,"Cc1cc(/C=C/C#N)cc(C)c1Oc1nc(NC23CC(C#N)(C2)C3)nc2nc(C(C)O)n(C(F)F)c12 (stereo not shown) [Compound 179, (E)-3-((6-(4-(2-cyanovinyl)-2,6-dimethylphenoxy)-7-(difluoromethyl)-8-(1-hydroxyethyl)-7H-purin-2-yl)amino)bicyclo[1.1.1]pentane-1-carbonitrile]",18.1
23,"Cc1cc(/C=C/C#N)cc(C)c1Oc1nc(NC23CC(C#N)(C2)C3)nc2c1[C@@H](C)N(C1CC1)C2=O [Compound 180, (R,E)-3-((4-(4-(2-cyanovinyl)-2,6-dimethylphenoxy)-6-cyclopropyl-5-methyl-7-oxo-6,7-dihydro-5H-pyrrolo[3,4-d]pyrimidin-2-yl)amino)bicyclo[1.1.1]pentane-1-carbonitrile]",92.9
24,"Cc1cc(/C=C/C#N)cc(C)c1Oc1nc(NC23CC(C#N)(C2)C3)nc2c1[C@H](C)N(C1CC1)C2=O [Compound 181, (S,E)-3-((4-(4-(2-cyanovinyl)-2,6-dimethylphenoxy)-6-cyclopropyl-5-methyl-7-oxo-6,7-dihydro-5H-pyrrolo[3,4-d]pyrimidin-2-yl)amino)bicyclo[1.1.1]pentane-1-carbonitrile]",20.5
25,"Cc1cc(/C=C/C#N)cc(C)c1Oc1nc(NC23CC(C#N)(C2)C3)nc2nc3n(c12)CCO3 [Compound 184, (E)-3-((4-(4-(2-cyanovinyl)-2,6-dimethylphenoxy)-6,7-dihydrooxazolo[2,3-f]purin-2-yl)amino)bicyclo[1.1.1]pentane-1-carbonitrile]",36.5
26,"Cc1cc(/C=C/C#N)cc(C)c1Oc1nc(NC23CC(C#N)(C2)C3)nc2nc3n(c12)C[C@H](C)CO3 [Compound 185, (S,E)-3-((4-(4-(2-cyanovinyl)-2,6-dimethylphenoxy)-7-methyl-7,8-dihydro-6H-[1,3]oxazino[2,3-f]purin-2-yl)amino)bicyclo[1.1.1]pentane-1-carbonitrile]",22.3
27,"Cc1cc(/C=C/C#N)cc(C)c1Oc1nc(NC23CC(C#N)(C2)C3)nc2nc3n(c12)C[C@@H](C)CO3 [Compound 186, (R,E)-3-((4-(4-(2-cyanovinyl)-2,6-dimethylphenoxy)-7-methyl-7,8-dihydro-6H-[1,3]oxazino[2,3-f]purin-2-yl)amino)bicyclo[1.1.1]pentane-1-carbonitrile]",92
28,"Cc1cc(/C=C/C#N)cc(C)c1Oc1nc(NC23CC(C#N)(C2)C3)nc2nc3n(c12)CC1(CC1)CO3 [Compound 187, (E)-3-((4′-(4-(2-cyanovinyl)-2,6-dimethylphenoxy)-6′H,8′H-spiro[cyclopropane-1,7′-[1,3]oxazino[2,3-f]purin]-2′-yl)amino)bicyclo[1.1.1]pentane-1-carbonitrile]",36.5
